Patent US6479435B1, “Diaryl ethers and processes for their preparation and herbicidal and desiccant compositions containing them” (ISK Americas Incorporated, priority 1997, dated 2002)

Experiments:
Format in all cases: in vivo
[1] = tested on: common ragweed (Ambrosia artemisiifolia L., AMBEL); assay: Post-emerge greenhouse herbicide test, phytotoxicity rating; details: 14 days after application, scale 0-100
From the text: (§1) A standard greenhouse herbicide activity screening system was used to evaluate the herbicidal efficacy and crop safety of these test compounds. Six broadleaf weed species including redroot pigweed (Amaranthus retroflexus, AMARE), velvetleaf (Abutilon theophrasti, ABUTH), sicklepod (Cassia obtusifolia, CASOB), ivyleaf morningglory (Ipomoea hederacea, IPOHE), lambsquarters (Chenopodium album, CHEAL) and common ragweed (Ambrosia artemisiifolia L., AMBEL) were used as test species. Four grass weed species including green foxtail (Setaria viridis, SETVI), barnyardgrass (Echinochloa crusgalli, ECHCG), Johnsongrass (Sorghum halepense, SORHA), and large crabgrass (Digitaria sanguinalis, DIGSA) were also used. In addition, three crop species, field corn (Zea mays L., var. Dekalb 535, CORN), soybean (Glycine max L., var. Pella 86, SOY), and upland rice (Oryza sp., var.Tebonnet, RICE) were included.
All test compounds were dissolved in acetone and applied to the test units in a volume of 187 l/ha. […] Plants were arranged on a shelf so that the top of the canopy (post-emerge) or top of the soil surface (pre-emerge) was 40-45 cm below the nozzle. Pressurized air was used to force the test solution through the nozzle as it was mechanically advanced (via electrically driven chain drive) over the top of all test plants/pots. This application simulates a typical commercial field herbicide application.
(§2) In the post-emerge test, a commercial non-ionic surfactant was also included (0.25% v/v) to enhance wetting of the leaf surfaces Qf target plants at rates ranging from 63 g ai/ha to 1000 g ai/ha. For post-emerge tests, seeds were planted 8-21 days prior to the test to allow emergence and good foliage development prior to application of the test substances. At the time of the post-emerge application, plants of all species were usually at the 2-3 leaf stage of development. Post-emerge test units were always bottom-watered.
(§3) At 14 days after application of the test materials, phytotoxicity ratings were recorded. A rating scale of 0-100 was used as previously described in Research Methods in Weed Science, 2nd edition, B. Truelove, Ed., Southern Weed Science Society, Auburn University, Auburn, Ala., 1977. Briefly, “0” corresponds to no damage and “100” corresponds to complete death of all plants in the test unit. This scale was used both to determine efficacy against weed species and damage to crop species. Herbicide activity data for various compounds of this invention, which are shown by compound number in Tables 1-9, are shown in Tables 13 and 14.

[2] = tested on: soybean (Glycine max L., var. Pella 86, SOY); assay: Post-emerge greenhouse test, crop damage rating; design: key to crop damage rating SOY: 0-100 scale: 0 = no damage, 100 = complete death of all plants; details: 14 days after application, scale 0-100
Method in brief: (§4)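 Scores use a 0 (no damage) to 100 (complete kill) scale, taken 14 days after a foliar spray. Acetone solutions with 0.25% v/v non-ionic surfactant were applied by track sprayer at 187 l/ha and 63-1000 g ai/ha to bottom-watered 2-3 leaf plants.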

[3] = tested on: upland rice (Oryza sp., var.Tebonnet, RICE); assay: Post-emerge greenhouse test, crop damage rating; details: 14 days after application, scale 0-100
Method in brief: as §4

[4] = tested on: field corn (Zea mays L., var. Dekalb 535, CORN); assay: Post-emerge greenhouse test, crop damage rating; details: 14 days after application, scale 0-100
Method in brief: as §4

[5] = tested on: upland rice (Oryza sp., var.Tebonnet, RICE); assay: Pre-emerge greenhouse test, crop damage rating; details: Rate 250 g al/ha, 14 days after application, rating scale 0-100
Method in brief: (§5)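 Visual 0–100 injury rating (100 = all plants dead) taken 14 days after treatment. Rates of 125–1000 g ai/ha in acetone, 187 l/ha, were sprayed onto soil one day post-sowing; pots were surface-watered to incorporate, then bottom-watered.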

[6] = tested on: field corn (Zea mays L., var. Dekalb 535, CORN); assay: Pre-emerge greenhouse test, crop damage rating; details: 14 days after application, rating scale 0-100
Method in brief: as §5

[7] = tested on: soybean (Glycine max L., var. Pella 86, SOY); assay: Pre-emerge greenhouse test, crop damage rating; design: key to SOY crop damage rating: 0 = no damage, 100 = complete death of all plants; details: 14 days after application, rating scale 0-100
Method in brief: as §5

[8] = tested on: large crabgrass (Digitaria sanguinalis, DIGSA); assay: Post-emerge greenhouse herbicide test, phytotoxicity rating; details: 14 days after application, scale 0-100
From the text: as §1
(§6) All test compounds were dissolved in acetone and applied to the test units in a volume of 187 l/ha. Test materials were applied at rates ranging from 125 g ai/ha to 1000 g ai/ha using a track sprayer equipped with a TJ8001E even flow flat fan spray nozzle. Plants were arranged on a shelf so that the top of the canopy (post-emerge) or top of the soil surface (pre-emerge) was 40-45 cm below the nozzle. Pressurized air was used to force the test solution through the nozzle as it was mechanically advanced (via electrically driven chain drive) over the top of all test plants/pots. This application simulates a typical commercial field herbicide application.
as §2, §3

[9] = tested on: lambsquarters (Chenopodium album, CHEAL); assay: as above; details: 14 days after application, scale 0-100
From the text: as §1, §6, §2, §3

[10] = tested on: barnyardgrass (Echinochloa crusgalli, ECHCG); assay: as above; details: 14 days after application, scale 0-100
From the text: as §1, §6, §2, §3

[11] = tested on: ivyleaf morningglory (Ipomoea hederacea, IPOHE); assay: as above; details: 14 days after application, scale 0-100
From the text: as §1, §6, §2, §3

[12] = tested on: green foxtail (Setaria viridis, SETVI); assay: as above; details: 14 days after application, scale 0-100
From the text: as §1, §6, §2, §3

[13] = tested on: Johnsongrass (Sorghum halepense, SORHA); assay: as above; details: 14 days after application, scale 0-100
From the text: as §1, §6, §2, §3

[14] = tested on: velvetleaf (Abutilon theophrasti, ABUTH); assay: as above; details: 14 days after application, scale 0-100
From the text: as §1, §6, §2, §3

[15] = tested on: sicklepod (Cassia obtusifolia, CASOB); assay: as above; details: 14 days after application, scale 0-100
From the text: as §1, §6, §2, §3

[16] = tested on: redroot pigweed (Amaranthus retroflexus, AMARE); assay: as above; details: 14 days after application, scale 0-100
From the text: as §1, §6, §2, §3

[17] = tested on: large crabgrass (Digitaria sanguinalis, DIGSA); assay: Pre-emerge greenhouse herbicide test, phytotoxicity rating; details: 14 days after application, rating scale 0-100
From the text: as §1
(§7) All plants were grown in 10 cm square plastic pots which were filled with a sandy loam soil mix. For preemerge tests, seeds were planted one day prior to application of the test compounds. Immediately after application, test units of the pre-emerge applications were watered at the soil surface to incorporate the test materials. Subsequently, these test units were bottom-watered.
as §6, §3

[18] = tested on: lambsquarters (Chenopodium album, CHEAL); assay: as above; details: 14 days after application, rating scale 0-100
From the text: as §1, §7, §6, §3

[19] = tested on: barnyardgrass (Echinochloa crusgalli, ECHCG); assay: as above; details: 14 days after application, rating scale 0-100
From the text: as §1, §7, §6, §3

[20] = tested on: ivyleaf morningglory (Ipomoea hederacea, IPOHE); assay: as above; details: 14 days after application, rating scale 0-100
From the text: as §1, §7, §6, §3

[21] = tested on: green foxtail (Setaria viridis, SETVI); assay: as above; details: 14 days after application, rating scale 0-100
From the text: as §1, §7, §6, §3

[22] = tested on: Johnsongrass (Sorghum halepense, SORHA); assay: as above; details: 14 days after application, rating scale 0-100
From the text: as §1, §7, §6, §3

[23] = tested on: velvetleaf (Abutilon theophrasti, ABUTH); assay: as above; details: 14 days after application, rating scale 0-100
From the text: as §1, §7, §6, §3

[24] = tested on: sicklepod (Cassia obtusifolia, CASOB); assay: as above; details: 14 days after application, rating scale 0-100
From the text: as §1, §7, §6, §3

[25] = tested on: redroot pigweed (Amaranthus retroflexus, AMARE); assay: as above; details: 14 days after application, rating scale 0-100
From the text: as §1, §7, §6, §3

## CCOC(=O)C(C)Oc1ccc(Oc2cc(-n3c(=O)n4n(c3=S)CCCC4)c(F)cc2Cl)c([N+](=O)[O-])c1 (stereo not shown) [Compound 8-39]
[1]; rate 63 g ai/ha
  phytotoxicity rating AMBEL: 60
[1]; rate 230 g ai/ha
  phytotoxicity rating AMBEL: 80
[2]; rate 63 g ai/ha
  crop damage rating SOY: 60
[2]; rate 230 g ai/ha
  crop damage rating SOY: 80
[3]; rate 63 g ai/ha
  crop damage rating RICE: 15
[3]; rate 230 g ai/ha
  crop damage rating RICE: 15
[4]; rate 63 g ai/ha
  crop damage rating CORN: 15
[4]; rate 230 g ai/ha
  crop damage rating CORN: 10
[5]
  RICE crop damage rating: 20
[6]; Rate 125 g al/ha
  CORN crop damage rating: 0
[6]; Rate 250 g al/ha
  CORN crop damage rating: 0
[7]; Rate 125 g al/ha
  SOY crop damage rating: 0
[7]; Rate 250 g al/ha
  SOY crop damage rating: 0
[8]; rate 63 g ai/ha
  phytotoxicity rating DIGSA: 0
[8]; rate 230 g ai/ha
  phytotoxicity rating DIGSA: 10
[9]; rate 63 g ai/ha
  phytotoxicity rating CHEAL: 50
[9]; rate 230 g ai/ha
  phytotoxicity rating CHEAL: 70
[10]; rate 63 g ai/ha
  phytotoxicity rating ECHCG: 0
[10]; rate 230 g ai/ha
  phytotoxicity rating ECHCG: 30
[11]; rate 63 g ai/ha
  phytotoxicity rating IPOHE: 100
[11]; rate 230 g ai/ha
  phytotoxicity rating IPOHE: 90
[12]; rate 63 g ai/ha
  phytotoxicity rating SETVI: 10
[12]; rate 230 g ai/ha
  phytotoxicity rating SETVI: 10
[13]; rate 63 g ai/ha
  phytotoxicity rating SORHA: 0
[13]; rate 230 g ai/ha
  phytotoxicity rating SORHA: 10
[14]; rate 63 g ai/ha
  phytotoxicity rating ABUTH: 100
[14]; rate 230 g ai/ha
  phytotoxicity rating ABUTH: 100
[15]; rate 63 g ai/ha
  phytotoxicity rating CASOB: 100
[15]; rate 230 g ai/ha
  phytotoxicity rating CASOB: 30
[16]; rate 63 g ai/ha
  phytotoxicity rating AMARE: 70
[16]; rate 230 g ai/ha
  phytotoxicity rating AMARE: 80
[17]; Rate 125 g al/ha
  DIGSA phytotoxicity rating: 0
[17]; Rate 250 g al/ha
  DIGSA phytotoxicity rating: 0
[18]; Rate 125 g al/ha
  CHEAL phytotoxicity rating: 99
[18]; Rate 250 g al/ha
  CHEAL phytotoxicity rating: 100
[19]; Rate 125 g al/ha
  ECHCG phytotoxicity rating: 0
[19]; Rate 250 g al/ha
  ECHCG phytotoxicity rating: 0
[20]; Rate 125 g al/ha
  IPOHE phytotoxicity rating: 0
[20]; Rate 250 g al/ha
  IPOHE phytotoxicity rating: 0
[21]; Rate 125 g al/ha
  SETVI phytotoxicity rating: 0
[21]; Rate 250 g al/ha
  SETVI phytotoxicity rating: 40
[22]; Rate 125 g al/ha
  SORHA phytotoxicity rating: 0
[22]; Rate 250 g al/ha
  SORHA phytotoxicity rating: 0
[23]; Rate 125 g al/ha
  ABUTH phytotoxicity rating: 20
[23]; Rate 250 g al/ha
  ABUTH phytotoxicity rating: 100
[24]; Rate 125 g al/ha
  CASOB phytotoxicity rating: 95
[24]; Rate 250 g al/ha
  CASOB phytotoxicity rating: 0
[25]; Rate 125 g al/ha
  AMARE phytotoxicity rating: 100
[25]; Rate 250 g al/ha
  AMARE phytotoxicity rating: 100
